Laboratory results reported in patent US20240391862A1, “(1,4,5-TRISUBSTITUTED-1H-PYRAZOL-3-YL)OXY-2-ALKOXY ALKYL ACIDS AND THEIR DERIVATIVES, THEIR SALTS AND THEIR USE AS HERBICIDAL AGENTS” (Bayer AKtiengesellschaft, priority 2021, published 2024).

Assays:
[1] = test system: DIGSA; experiment: Post-emergence herbicidal effect, greenhouse pot test; format: in vivo, Digitaria sanguinalis; conditions: visual rating about 3 weeks after treatment
Method in brief: (§1)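 Greenhouse pot test: weeds and crops sown in sandy loam, sprayed post-emergence at one-leaf stage (2–3 weeks after sowing) with WP or EC formulations plus 0.5% additive at 600 l/ha water, rates 20–320 g/ha. Visual rating about 3 weeks later versus untreated controls (100% = dead, 0% = as control).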

[2] = test system: ABUTH; experiment: as above; format: in vivo, Abutilon theophrasti; conditions: visual rating about 3 weeks after treatment; for pest or weed control at 80 g/ha / pest or weed control at 320 g/ha: Abutilon theophrasti, 504 h, read-out: Post-emergence effect against ABUTH
Method in brief: as §1

[3] = test system: PHBPU; experiment: as above; format: in vivo, Ipomoea purpurea; conditions: for pest or weed control at 20 g/ha / pest or weed control at 80 g/ha / pest or weed control at 320 g/ha: Ipomoea purpurea, 504 h, read-out: Post-emergence effect against PHBPU in %
Method in brief: as §1

[4] = test system: ALOMY; experiment: as above; format: in vivo, Alopecurus myosuroides; conditions: 320 g/ha, visual rating about 3 weeks after treatment; for pest or weed control at 320 g/ha: Alopecurus myosuroides, 504 h, read-out: Post-emergence effect against ALOMY
Method in brief: as §1

[5] = test system: LOLRI; experiment: as above; format: in vivo, Lolium rigidum; conditions: for pest or weed control at 320 g/ha: Lolium rigidum, 504 h, read-out: Post-emergence effect against LOLRI in %
Method in brief: as §1

[6] = test system: MATIN; experiment: as above; format: in vivo, Tripleurospermum inodorum
Method in brief: as §1

[7] = test system: KCHSC; experiment: as above; format: in vivo
Method in brief: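 Visual rating of activity against untreated plants (100% = plants died, 0% = no effect), done about 3 weeks after treatment. Compounds applied at 20–320 g/ha as aqueous spray (600 l/ha, 0.5% additive) from WP or EC formulations onto one-leaf-stage plants grown in sandy loam under greenhouse conditions.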

[8] = test system: ECHCG; experiment: as above; format: in vivo, Echinochloa crus-galli; conditions: for pest or weed control at 80 g/ha / pest or weed control at 320 g/ha: read-out: Post-emergence effect against ECHCG in %
Method in brief: as §1

[9] = test system: VERPE; experiment: as above; format: in vivo, Veronica persica
Method in brief: as §1

[10] = test system: POLCO; experiment: as above; format: in vivo, Fallopia convolvulus
Method in brief: as §1

[11] = test system: SETVI; experiment: as above; format: in vivo, Setaria viridis
Method in brief: as §1

[12] = test system: AVEFA; experiment: as above; format: in vivo, Avena fatua; conditions: visual rating about 3 weeks after treatment
Method in brief: as §1

[13] = test system: AMARE; experiment: as above; format: in vivo, Amaranthus retroflexus; conditions: Amaranthus retroflexus, 504 h, visual rating about 3 weeks after treatment, read-out: Post-emergence effect against AMARE
Method in brief: as §1

[14] = test system: VIOTR; experiment: as above; format: in vivo, Viola tricolor
Method in brief: as §1

[15] = test system: ZEAMX; experiment: Post-emergence herbicidal effect and crop plant compatibility, greenhouse pot test; format: in vivo, Zea mays; conditions: one-leaf stage, rated visually after about 3 weeks vs untreated controls
Method in brief: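 Visual % activity scored roughly 3 weeks post-spray against untreated plants, where 100% means death and 0% equals control. Plants were treated at the one-leaf stage, 2 to 3 weeks after sowing in sandy loam, at 20 to 320 g/ha.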

[16] = Digitaria sanguinalis, 504 h, 320 g/ha, read-out: Post-emergence effect against DIGSA
[17] = 504 h, 80 g/ha, read-out: Post-emergence effect against KCHSC in %
[18] = 504 h, 320 g/ha, read-out: Post-emergence effect against KCHSC in %
[19] = Echinochloa crus-galli, 504 h, 80 g/ha
[20] = Echinochloa crus-galli, 504 h, 320 g/ha
[21] = Veronica persica, 504 h, 320 g/ha, read-out: Post-emergence effect against VERPE in %
[22] = Fallopia convolvulus, 504 h, 320 g/ha, read-out: Post-emergence effect against POLCO in %
[23] = Setaria viridis, 504 h, 320 g/ha, read-out: Post-emergence effect against SETVI in %
[24] = Avena fatua, 504 h, 320 g/ha, read-out: Post-emergence effect against AVEFA

## CCOC(=O)C(OCC)Oc1nn(-c2ccccc2F)c(-c2ccc(F)nc2)c1Br (single isomer, unassigned) [Example I-66, Ethyl (2R*)-{[4-bromo-1-(2-fluorophenyl)-5-(6-fluoropyridin-3-yl)-1H-pyrazol-3-yl]oxy}(ethoxy)acetate]
[1]; [16]
  pest or weed control at 320 g/ha: 90%
[2]; 80 g/ha
  pest or weed control at 80 g/ha: 80%
[2]; 320 g/ha
  pest or weed control at 320 g/ha: 90%
[3]
  pest or weed control at 20 g/ha: 80%
[3]; 80 g/ha
  pest or weed control at 80 g/ha: 80%
[3]; 320 g/ha
  pest or weed control at 320 g/ha: 90%
[4]
  pest or weed control at 320 g/ha: 90%
[5]; 320 g/ha
  pest or weed control at 320 g/ha: 90%
[6]; Tripleurospermum inodorum, 504 h, 80 g/ha, read-out: Post-emergence effect against MATIN in %
  pest or weed control at 80 g/ha: 80%
[6]; Tripleurospermum inodorum, 504 h, 320 g/ha, read-out: Post-emergence effect against MATIN in %
  pest or weed control at 320 g/ha: 90%
[7]; [17]
  pest or weed control at 80 g/ha: 80%
[7]; [18]
  pest or weed control at 320 g/ha: 90%
[8]; [19]
  pest or weed control at 80 g/ha: 90%
[8]; [20]
  pest or weed control at 320 g/ha: 90%
[9]; Veronica persica, 504 h, 80 g/ha, read-out: Post-emergence effect against VERPE in %
  pest or weed control at 80 g/ha: 80%
[9]; [21]
  pest or weed control at 320 g/ha: 90%
[10]; [22]
  pest or weed control at 320 g/ha: 80%
[11]; [23]
  pest or weed control at 320 g/ha: 90%
[12]; [24]
  pest or weed control at 320 g/ha: 80%
[13]
  pest or weed control at 80 g/ha: 80%
  pest or weed control at 320 g/ha: 80%

## COC(=O)CCOC(=O)C(OC)Oc1nn(-c2ncccc2F)c(-c2cncc(F)c2)c1C1CC1 (single isomer, unassigned) [Example I-77]
[1]; 320 g/ha
  Post-emergence effect against DIGSA: 90%
[2]; 80 g/ha
  Post-emergence effect against ABUTH: 80%
[2]; 320 g/ha
  Post-emergence effect against ABUTH: 80%
[3]; 80 g/ha
  Post-emergence effect against PHBPU in %: 90%
[3]; 320 g/ha
  Post-emergence effect against PHBPU in %: 90%
[4]
  Post-emergence effect against ALOMY: 90%
[5]; 80 g/ha
  Post-emergence effect against LOLRI in %: 90%
[5]; 320 g/ha
  Post-emergence effect against LOLRI in %: 90%
[6]; 80 g/ha
  Post-emergence effect against MATIN in %: 80%
[6]; 320 g/ha
  Post-emergence effect against MATIN in %: 80%
[14]; 80 g/ha
  Post-emergence effect against VIOTR in %: 90%
[14]; 320 g/ha
  Post-emergence effect against VIOTR in %: 90%
[7]; 20 g/ha
  Post-emergence effect against KCHSC in %: 80%
[7]; 80 g/ha
  Post-emergence effect against KCHSC in %: 90%
[7]; 320 g/ha
  Post-emergence effect against KCHSC in %: 90%
[8]; 80 g/ha
  Post-emergence effect against ECHCG in %: 90%
[8]; 320 g/ha
  Post-emergence effect against ECHCG in %: 90%
[9]; 320 g/ha
  Post-emergence effect against VERPE in %: 90%
[10]; 80 g/ha
  Post-emergence effect against POLCO in %: 90%
[10]; 320 g/ha
  Post-emergence effect against POLCO in %: 90%
[15]; 20 g/ha
  Post-emergence effect at 20 g/ha against ZEAMX in %: 0%
[15]; 80 g/ha
  Post-emergence effect at 80 g/ha against ZEAMX in %: 0%
[11]; 320 g/ha
  Post-emergence effect against SETVI in %: 90%
[12]; 80 g/ha
  Post-emergence effect against AVEFA: 90%
[12]; 320 g/ha
  Post-emergence effect against AVEFA: 90%

## COC(=O)C(OC)Oc1nn(-c2ncccc2F)c(-c2cncc(F)c2)c1I (stereo not shown) [Example I-72]
[1]; Digitaria sanguinalis, 504 h, 80 g/ha, read-out: Post-emergence effect against DIGSA
  pest or weed control at 80 g/ha: 90%
[1]; [16]
  pest or weed control at 320 g/ha: 90%
[2]; 80 g/ha
  pest or weed control at 80 g/ha: 80%
[2]; 320 g/ha
  pest or weed control at 320 g/ha: 90%
[3]
  pest or weed control at 20 g/ha: 80%
[3]; 80 g/ha
  pest or weed control at 80 g/ha: 90%
[3]; 320 g/ha
  pest or weed control at 320 g/ha: 90%
[4]
  pest or weed control at 320 g/ha: 90%
[5]; 320 g/ha
  pest or weed control at 320 g/ha: 90%
[14]; Viola tricolor, 504 h, 20 g/ha, read-out: Post-emergence effect against VIOTR in %
  pest or weed control at 20 g/ha: 90%
[14]; Viola tricolor, 504 h, 80 g/ha, read-out: Post-emergence effect against VIOTR in %
  pest or weed control at 80 g/ha: 90%
[14]; Viola tricolor, 504 h, 320 g/ha, read-out: Post-emergence effect against VIOTR in %
  pest or weed control at 320 g/ha: 90%
[7]; 504 h, 20 g/ha, read-out: Post-emergence effect against KCHSC in %
  pest or weed control at 20 g/ha: 90%
[7]; [17]
  pest or weed control at 80 g/ha: 90%
[7]; [18]
  pest or weed control at 320 g/ha: 90%
[8]; Echinochloa crus-galli, 504 h, 20 g/ha, visual rating about 3 weeks after treatment, read-out: Post-emergence effect against ECHCG
  pest or weed control at 20 g/ha: 90%
[8]; [19]
  pest or weed control at 80 g/ha: 90%
[8]; [20]
  pest or weed control at 320 g/ha: 90%
[9]; [21]
  pest or weed control at 320 g/ha: 90%
[10]; Fallopia convolvulus, 504 h, 20 g/ha, read-out: Post-emergence effect against POLCO in %
  pest or weed control at 20 g/ha: 80%
[10]; Fallopia convolvulus, 504 h, 80 g/ha, read-out: Post-emergence effect against POLCO in %
  pest or weed control at 80 g/ha: 80%
[10]; [22]
  pest or weed control at 320 g/ha: 90%
[11]; Setaria viridis, 504 h, 20 g/ha, read-out: Post-emergence effect against SETVI in %
  pest or weed control at 20 g/ha: 90%
[11]; Setaria viridis, 504 h, 80 g/ha, read-out: Post-emergence effect against SETVI in %
  pest or weed control at 80 g/ha: 90%
[11]; [23]
  pest or weed control at 320 g/ha: 90%
[12]; Avena fatua, 504 h, 80 g/ha, read-out: Post-emergence effect against AVEFA
  pest or weed control at 80 g/ha: 90%
[12]; [24]
  pest or weed control at 320 g/ha: 90%
[13]; 20 g/ha
  pest or weed control at 20 g/ha: 80%
[13]
  pest or weed control at 80 g/ha: 80%
  pest or weed control at 320 g/ha: 80%
